Data taken from paper PMC10715191, “Exploration of the novel fluoroquinolones with high inhibitory effect against quinolone-resistant DNA gyrase of Salmonella Typhimurium” (Microbiology Spectrum, 2023).
Values after ≈ are worked out from the molar mass of the structure shown.

Columns and labels:
[1] = molecular target: T1, WT S. Typhimurium DNA gyrase (Salmonella typhimurium, UniProt P0A2I3+P37411); assay: Fluoroquinolone-inhibited DNA supercoiling assay, WT DNA gyrase; assay type: biochemical; details: read-out: IC50s ± SD, WT (converted)
T1 construct: made in house; host or cells: Escherichia coli BL21(DE3)
Text: (§1) Recombinant DNA gyrase was obtained as separate subunits, GyrA and GyrB. In total, plasmids encoding nine subunits including WT GyrA and GyrB as well as seven GyrA with amino acid substitutions (Ser83Phe, Ser83Ile, Ser83Tyr, Asp87Gly, Asp87Asn, Asp87Tyr, and […]) in the quinolone resistance determining region were constructed as described in our previous study ([38]). These plasmids were introduced into Escherichia coli BL21(DE3) (Merck KGaA, Darmstadt, Germany), and protein expression was induced in the bacterial cells. A transformed E. coli was inoculated into Luria-Bertani broth supplemented with ampicillin (50 mg/L) and incubated at 37°C until the optical density value reached 0.60. Expression of GyrA and GyrB was induced by adding 1 mM isopropyl beta-D-1-thiogalactopyranoside (Wako Pure Chemical Industries Ltd, Osaka, Japan) followed by incubation at 16°C for 40 h (for GyrA), or 18°C for 13 h (for GyrB). To release the expressed protein, E. coli cells were harvested by centrifugation, suspended in a native binding buffer containing complete mini EDTA-free (Roche Applied Science, Mannheim, Germany), and then sonicated at a 30% duty cycle with 10 cycles of 40 s on and 40 s off (Sonifier 250; Branson, Danbury, CT). The recombinant DNA gyrase subunits were purified by column chromatography using Ni-NTA agarose resin (Thermo Fisher Scientific, Inc., Waltham, MA) and dialyzed against DNA gyrase dilution buffer [50 mM Tris-HCl, pH 7.5; 100 mM KCl, 2 mM dithiothreitol (DTT), 1 mM EDTA]. […] The protein purity was assessed by sodium dodecyl sulfate-polyacrylamide gel electrophoresis (SDS-PAGE) (ATTO, Tokyo, Japan) as shown in Fig. 7.
(§2) The reaction mixture was incubated at 37°C for 60 min and then the reaction was halted by adding 8 µL of stop solution (5% SDS, 25% glycerol, and 0.25 mg/mL of bromophenol blue) ([45]). […] The amount of supercoiled DNA was quantified by its intensity using ImageJ, the digital image processing software (https://imagej.nih.gov/ij/download.html).

[2] = molecular target: T2, GryA-Ser83Ile S. Typhimurium DNA gyrase (Salmonella typhimurium, UniProt P0A2I3+P37411, S83I); assay: Fluoroquinolone-mediated DNA cleavage assay, GyrA Ser83Ile DNA gyrase; assay type: biochemical
T2 construct: made in house; host or cells: Escherichia coli BL21(DE3)
Text: as §1, with “CT).” for “CT). The recombinant DNA gyrase subunits were purified by column chromatography using Ni-NTA agarose resin (Thermo Fisher Scientific, Inc., Waltham, MA) and dialyzed against DNA gyrase dilution buffer [50 mM Tris-HCl, pH 7.5; 100 mM KCl, 2 mM dithiothreitol (DTT), 1 mM EDTA].”, “7. […]” for “7.”

[3] = molecular target: T3, Ser83Ile mutant S. Typhimurium DNA gyrase (Salmonella typhimurium, UniProt P0A2I3+P37411, S83I); assay: Fluoroquinolone-inhibited DNA supercoiling assay, GyrA Ser83Ile DNA gyrase; assay type: biochemical; details: read-out: IC50s ± SD, Ser83Ile (converted)
T3 construct: made in house; host or cells: Escherichia coli BL21(DE3)
Text: as §1, §2

[4] = molecular target: T4, Ser83Phe mutant S. Typhimurium DNA gyrase (Salmonella typhimurium, UniProt P0A2I3+P37411, S83F); assay: Fluoroquinolone-inhibited DNA supercoiling assay, GyrA Ser83Phe DNA gyrase; assay type: biochemical; details: read-out: IC50s ± SD, Ser83Phe (converted)
T4 construct: made in house; host or cells: Escherichia coli BL21(DE3)
T4 sequence (P37411 whole entry S83F, one chain of several): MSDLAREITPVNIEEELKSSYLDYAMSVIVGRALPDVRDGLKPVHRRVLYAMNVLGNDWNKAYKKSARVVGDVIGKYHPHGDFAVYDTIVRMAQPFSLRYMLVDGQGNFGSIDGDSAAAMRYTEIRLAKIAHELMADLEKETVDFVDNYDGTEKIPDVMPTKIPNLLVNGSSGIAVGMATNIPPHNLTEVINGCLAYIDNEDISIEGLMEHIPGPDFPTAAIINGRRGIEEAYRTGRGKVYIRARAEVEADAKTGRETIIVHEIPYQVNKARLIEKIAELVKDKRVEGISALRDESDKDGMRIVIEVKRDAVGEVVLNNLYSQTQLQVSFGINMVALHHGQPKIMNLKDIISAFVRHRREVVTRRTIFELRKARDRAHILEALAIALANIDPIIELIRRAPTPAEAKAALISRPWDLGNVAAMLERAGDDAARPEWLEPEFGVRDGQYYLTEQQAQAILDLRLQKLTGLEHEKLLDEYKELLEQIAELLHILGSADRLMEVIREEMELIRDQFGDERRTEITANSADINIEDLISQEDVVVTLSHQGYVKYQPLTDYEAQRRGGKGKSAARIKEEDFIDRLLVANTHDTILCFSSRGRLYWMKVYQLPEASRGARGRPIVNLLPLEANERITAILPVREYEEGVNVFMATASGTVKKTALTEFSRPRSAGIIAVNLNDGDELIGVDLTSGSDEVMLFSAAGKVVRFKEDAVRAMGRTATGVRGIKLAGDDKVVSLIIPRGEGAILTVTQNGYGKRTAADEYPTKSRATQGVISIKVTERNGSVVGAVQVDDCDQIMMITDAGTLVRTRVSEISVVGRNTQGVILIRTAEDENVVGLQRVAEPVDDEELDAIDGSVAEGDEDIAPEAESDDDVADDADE
Text: as §1, §2

[5] = molecular target: T5, Ser83Phe-Asp87Asn double-mutant S. Typhimurium DNA gyrase (Salmonella typhimurium, UniProt P0A2I3+P37411, D87N/S83F); assay: Fluoroquinolone-inhibited DNA supercoiling assay, GyrA Ser83Phe-Asp87Asn DNA gyrase; assay type: biochemical; details: for IC50 against double-mutant DNA gyrase relative to WT: ratio IC50 double mutant / WT; for IC50: supercoiling assay, GyrA double mutant Ser83Phe-Asp87Asn, read-out: IC50s ± SD, Ser83Phe-Asp87Asn (converted)
T5 construct: made in house; host or cells: Escherichia coli BL21(DE3)
T5 sequence (P37411 whole entry S83F/D87N, one chain of several): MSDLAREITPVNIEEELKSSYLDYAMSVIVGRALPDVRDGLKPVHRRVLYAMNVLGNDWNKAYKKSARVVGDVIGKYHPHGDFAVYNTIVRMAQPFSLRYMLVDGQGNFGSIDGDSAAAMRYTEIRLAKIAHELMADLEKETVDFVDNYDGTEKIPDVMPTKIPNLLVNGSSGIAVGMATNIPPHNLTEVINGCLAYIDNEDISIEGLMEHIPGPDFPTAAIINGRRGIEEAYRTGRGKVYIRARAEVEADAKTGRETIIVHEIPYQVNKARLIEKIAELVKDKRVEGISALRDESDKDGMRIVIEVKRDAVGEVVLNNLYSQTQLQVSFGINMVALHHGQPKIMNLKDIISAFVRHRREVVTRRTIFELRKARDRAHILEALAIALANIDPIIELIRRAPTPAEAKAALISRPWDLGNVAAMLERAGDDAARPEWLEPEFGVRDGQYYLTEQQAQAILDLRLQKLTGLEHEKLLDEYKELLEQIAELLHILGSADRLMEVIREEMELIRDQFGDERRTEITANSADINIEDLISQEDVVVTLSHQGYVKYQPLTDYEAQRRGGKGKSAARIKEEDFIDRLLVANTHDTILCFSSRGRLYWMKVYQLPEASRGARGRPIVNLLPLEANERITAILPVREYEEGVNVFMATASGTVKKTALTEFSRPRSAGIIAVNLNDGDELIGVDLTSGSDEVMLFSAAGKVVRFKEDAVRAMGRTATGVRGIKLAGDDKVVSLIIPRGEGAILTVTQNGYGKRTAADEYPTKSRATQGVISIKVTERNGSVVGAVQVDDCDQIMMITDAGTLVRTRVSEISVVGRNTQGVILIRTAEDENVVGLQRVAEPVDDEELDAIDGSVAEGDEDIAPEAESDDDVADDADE
Text: Recombinant DNA gyrase was obtained as separate subunits, GyrA and GyrB. In total, plasmids encoding nine subunits including WT GyrA and GyrB as well as seven GyrA with amino acid substitutions (Ser83Phe, Ser83Ile, Ser83Tyr, Asp87Gly, Asp87Asn, Asp87Tyr, and […]) in the quinolone resistance determining region were constructed as described in our previous study ([38]). These plasmids were introduced into Escherichia coli BL21(DE3) (Merck KGaA, Darmstadt, Germany), and protein expression was induced in the bacterial cells. A transformed E. coli was inoculated into Luria-Bertani broth supplemented with ampicillin (50 mg/L) and incubated at 37°C until the optical density value reached 0.60. Expression of GyrA and GyrB was induced by adding 1 mM isopropyl beta-D-1-thiogalactopyranoside (Wako Pure Chemical Industries Ltd, Osaka, Japan) followed by incubation at 16°C for 40 h (for GyrA), or 18°C for 13 h (for GyrB). To release the expressed protein, E. coli cells were harvested by centrifugation, suspended in a native binding buffer containing complete mini EDTA-free (Roche Applied Science, Mannheim, Germany), and then sonicated at a 30% duty cycle with 10 cycles of 40 s on and 40 s off (Sonifier 250; Branson, Danbury, CT). The recombinant DNA gyrase subunits were purified by column chromatography using Ni-NTA agarose resin (Thermo Fisher Scientific, Inc., Waltham, MA) and dialyzed against DNA gyrase dilution buffer [50 mM Tris-HCl, pH 7.5; 100 mM KCl, 2 mM dithiothreitol (DTT), 1 mM EDTA]. The obtained protein was mixed with glycerol to prevent denaturation and stored in small aliquots at −80°C for future use. The protein purity was assessed by sodium dodecyl sulfate-polyacrylamide gel electrophoresis (SDS-PAGE) (ATTO, Tokyo, Japan) as shown in Fig. 7.
The reaction mixture was incubated at 37°C for 60 min and then the reaction was halted by adding 8 µL of stop solution (5% SDS, 25% glycerol, and 0.25 mg/mL of bromophenol blue) ([45]). Next, 10 µL of each reaction mixture was subjected to gel electrophoresis for 80 min at 50 mA in 1.2% agarose gel in 1×Tris-acetate-EDTA (TAE) buffer. Subsequently, the gel was stained with 0.5 µg/mL of ethidium bromide for 30 min. The presence of supercoiled DNA can be easily distinguished as a separated band under the UV light. The amount of supercoiled DNA was quantified by its intensity using ImageJ, the digital image processing software (https://imagej.nih.gov/ij/download.html).

[6] = molecular target: T6, Asp87Asn mutant S. Typhimurium DNA gyrase (Salmonella typhimurium, UniProt P0A2I3+P37411, D87N); assay: Fluoroquinolone-inhibited DNA supercoiling assay, GyrA Asp87Asn DNA gyrase; assay type: biochemical; details: read-out: IC50s ± SD, Ap87Asn (converted)
T6 construct: made in house; host or cells: Escherichia coli BL21(DE3)
T6 sequence (P37411 whole entry D87N, one chain of several): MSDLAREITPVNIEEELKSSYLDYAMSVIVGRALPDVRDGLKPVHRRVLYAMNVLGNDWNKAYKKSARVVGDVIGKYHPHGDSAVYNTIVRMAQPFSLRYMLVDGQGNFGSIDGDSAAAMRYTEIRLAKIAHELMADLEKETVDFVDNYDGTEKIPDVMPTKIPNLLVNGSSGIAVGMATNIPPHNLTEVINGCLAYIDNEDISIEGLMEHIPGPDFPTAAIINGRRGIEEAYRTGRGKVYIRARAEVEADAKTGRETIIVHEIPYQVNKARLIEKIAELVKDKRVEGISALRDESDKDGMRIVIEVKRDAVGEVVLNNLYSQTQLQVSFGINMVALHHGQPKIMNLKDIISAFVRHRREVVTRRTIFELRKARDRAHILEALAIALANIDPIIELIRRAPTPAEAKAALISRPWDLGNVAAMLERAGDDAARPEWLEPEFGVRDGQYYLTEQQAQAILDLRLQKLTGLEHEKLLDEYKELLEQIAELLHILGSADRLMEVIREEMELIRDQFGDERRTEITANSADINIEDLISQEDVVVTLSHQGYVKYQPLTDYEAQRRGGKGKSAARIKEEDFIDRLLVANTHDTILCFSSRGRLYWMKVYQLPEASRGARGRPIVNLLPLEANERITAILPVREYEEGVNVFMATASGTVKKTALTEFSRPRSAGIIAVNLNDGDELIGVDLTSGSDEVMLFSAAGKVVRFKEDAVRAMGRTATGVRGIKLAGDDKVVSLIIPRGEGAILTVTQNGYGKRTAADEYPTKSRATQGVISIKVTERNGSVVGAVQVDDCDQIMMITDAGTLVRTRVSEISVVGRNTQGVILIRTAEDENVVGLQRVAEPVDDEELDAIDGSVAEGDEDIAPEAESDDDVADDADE
Text: as §1, §2

[7] = test system: S. Typhimurium NBRC 13245; assay: microbe, parasite or virus in culture; assay type: cell-based, Salmonella Typhimurium; details: micro-broth dilution, 37°C, 16 h; for MIC: Salmonella enterica, read-out: MIC ± SD, S. Typhimurium
Procedure: (§3) A suspension containing approximately 5 × 10^5 CFU/mL of each Salmonella strain was transferred into 96-well plate containing serially diluted fluoroquinolones and incubated at 37°C for 16 h.

S. Enteritidis NBRC 3313 = assay: microbe, parasite or virus in culture; assay type: cell-based, Salmonella Enteritidis; details: micro-broth dilution, 37°C, 16 h; for MIC: Salmonella enterica, read-out: MIC ± SD, S. Enteritidis
Procedure: as §3

[8] = molecular target: T7, Asp87Gly mutant S. Typhimurium DNA gyrase (Salmonella typhimurium, UniProt P0A2I3+P37411, D87G); assay: Fluoroquinolone-inhibited DNA supercoiling assay, GyrA Asp87Gly DNA gyrase; assay type: biochemical
T7 construct: made in house; host or cells: Escherichia coli BL21(DE3)
Text: as §1, §2

[9] = molecular target: T8, Asp87Tyr mutant S. Typhimurium DNA gyrase (Salmonella typhimurium, UniProt P0A2I3+P37411, D87Y); assay: Fluoroquinolone-inhibited DNA supercoiling assay, GyrA Asp87Tyr DNA gyrase; assay type: biochemical
T8 construct: made in house; host or cells: Escherichia coli BL21(DE3)
T8 sequence (P37411 whole entry D87Y, one chain of several): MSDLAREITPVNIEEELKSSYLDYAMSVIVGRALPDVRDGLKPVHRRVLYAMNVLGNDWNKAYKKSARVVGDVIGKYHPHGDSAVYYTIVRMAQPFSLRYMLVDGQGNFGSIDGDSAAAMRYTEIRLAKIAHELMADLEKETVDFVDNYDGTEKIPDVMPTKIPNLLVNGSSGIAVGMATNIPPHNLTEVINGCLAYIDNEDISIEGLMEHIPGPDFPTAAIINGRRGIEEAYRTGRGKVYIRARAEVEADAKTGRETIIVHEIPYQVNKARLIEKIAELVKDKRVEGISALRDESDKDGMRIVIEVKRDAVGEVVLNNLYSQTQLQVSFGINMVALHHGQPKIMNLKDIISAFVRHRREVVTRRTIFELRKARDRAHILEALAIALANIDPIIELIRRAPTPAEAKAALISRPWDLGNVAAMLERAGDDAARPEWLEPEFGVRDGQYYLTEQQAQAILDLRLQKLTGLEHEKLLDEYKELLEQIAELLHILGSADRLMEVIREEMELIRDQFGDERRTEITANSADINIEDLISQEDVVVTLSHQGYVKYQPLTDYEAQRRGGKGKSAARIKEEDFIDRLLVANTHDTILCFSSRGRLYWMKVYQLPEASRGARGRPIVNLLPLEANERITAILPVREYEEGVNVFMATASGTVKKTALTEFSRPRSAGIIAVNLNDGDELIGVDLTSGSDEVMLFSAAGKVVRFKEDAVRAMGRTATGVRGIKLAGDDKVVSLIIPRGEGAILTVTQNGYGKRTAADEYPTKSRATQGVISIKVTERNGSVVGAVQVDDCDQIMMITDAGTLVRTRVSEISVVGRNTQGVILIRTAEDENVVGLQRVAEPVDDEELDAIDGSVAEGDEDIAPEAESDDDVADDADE
Text: as §1, §2

[10] = molecular target: T1, WT S. Typhimurium DNA gyrase; assay: Fluoroquinolone-mediated DNA cleavage assay, WT DNA gyrase; assay type: biochemical
Text: as §1, with “CT).” for “CT). The recombinant DNA gyrase subunits were purified by column chromatography using Ni-NTA agarose resin (Thermo Fisher Scientific, Inc., Waltham, MA) and dialyzed against DNA gyrase dilution buffer [50 mM Tris-HCl, pH 7.5; 100 mM KCl, 2 mM dithiothreitol (DTT), 1 mM EDTA].”, “7. […]” for “7.”

[11] = molecular target: T9, Ser83Tyr mutant S. Typhimurium DNA gyrase (Salmonella typhimurium, UniProt P0A2I3+P37411, S83Y); assay: Fluoroquinolone-inhibited DNA supercoiling assay, GyrA Ser83Tyr DNA gyrase; assay type: biochemical; details: read-out: IC50s ± SD, Ser83Tyr (converted)
T9 construct: made in house; host or cells: Escherichia coli BL21(DE3)
T9 sequence (P37411 whole entry S83Y, one chain of several): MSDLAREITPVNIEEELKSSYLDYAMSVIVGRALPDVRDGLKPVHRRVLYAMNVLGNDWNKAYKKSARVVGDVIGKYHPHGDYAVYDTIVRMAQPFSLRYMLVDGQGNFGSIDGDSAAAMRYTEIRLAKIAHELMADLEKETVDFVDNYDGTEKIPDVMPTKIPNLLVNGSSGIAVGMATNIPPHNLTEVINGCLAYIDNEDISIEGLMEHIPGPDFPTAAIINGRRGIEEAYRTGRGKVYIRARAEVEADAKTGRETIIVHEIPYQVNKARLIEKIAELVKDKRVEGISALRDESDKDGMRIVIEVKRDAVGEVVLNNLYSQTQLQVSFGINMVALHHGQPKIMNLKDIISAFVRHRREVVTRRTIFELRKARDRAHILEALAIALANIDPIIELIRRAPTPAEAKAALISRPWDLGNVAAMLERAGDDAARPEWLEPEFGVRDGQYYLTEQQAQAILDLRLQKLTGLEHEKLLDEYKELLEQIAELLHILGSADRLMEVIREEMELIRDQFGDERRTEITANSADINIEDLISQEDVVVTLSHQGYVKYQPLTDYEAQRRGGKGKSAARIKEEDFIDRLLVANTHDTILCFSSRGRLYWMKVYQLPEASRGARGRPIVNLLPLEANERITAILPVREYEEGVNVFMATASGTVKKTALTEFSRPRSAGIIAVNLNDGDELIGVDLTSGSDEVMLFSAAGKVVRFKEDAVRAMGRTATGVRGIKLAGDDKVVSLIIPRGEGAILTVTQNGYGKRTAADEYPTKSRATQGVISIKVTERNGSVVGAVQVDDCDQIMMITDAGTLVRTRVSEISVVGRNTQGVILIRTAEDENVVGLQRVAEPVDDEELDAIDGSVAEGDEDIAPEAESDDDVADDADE
Text: as §1, §2

Nc1nc(-n2cc(C(=O)O)c(=O)c3cc(F)c(N4CC(O)C4)c(Cl)c32)c(F)cc1F [WQ-3034]
IC50 [1]: 45.4 nM
CC25s, Ser83Ile (concentration that induces 25% of maximum DNA cleavage) [2]: 0.58 µg/mL
IC50 [3]: 1910 nM
IC50 [4]: 59 nM
IC50 against double-mutant DNA gyrase relative to WT [5]: 59 fold
IC50 [5]: 2.68 µM
IC50 [6]: 1020 nM
MIC [7]: 0.08 µg/mL (≈ 0.182 µM)
MIC ± SD, S. Typhimurium [7]: 0.08 µg/mL (≈ 0.182 µM)
MIC (S. Enteritidis NBRC 3313): 0.016 µg/mL (≈ 0.0363 µM)
MIC ± SD, S. Enteritidis (S. Enteritidis NBRC 3313): 0.16 µg/mL (≈ 0.363 µM)
IC50 [8]: 54.5 nM
IC50 [9]: 68.1 nM
CC25s, WT (concentration that induces 25% of maximum DNA cleavage) [10]: 0.16 µg/mL
IC50 [11]: 495 nM

Cc1c(N2CC(O)C2)c(F)cc2c(=O)c(C(=O)O)cn(-c3nc(N)c(F)cc3F)c12 [WQ-3154]
IC50 [1]: 61.9 nM
IC50 [3]: 2750 nM
IC50 [4]: 71.4 nM
IC50 against double-mutant DNA gyrase relative to WT [5]: 70 fold
IC50 [5]: 4.31 µM
IC50 [6]: 2080 nM
MIC [7]: 0.08 µg/mL (≈ 0.19 µM)
MIC ± SD, S. Typhimurium [7]: 0.08 µg/mL (≈ 0.19 µM)
MIC (S. Enteritidis NBRC 3313): 0.08 µg/mL (≈ 0.19 µM)
MIC ± SD, S. Enteritidis (S. Enteritidis NBRC 3313): 0.08 µg/mL (≈ 0.19 µM)
IC50 [8]: 83.3 nM
IC50 [9]: 80.9 nM
IC50 [11]: 592 nM

Cc1c(N2CC(NC(C)C)C2)c(F)cc2c(=O)c(C(=O)O)cn(-c3nc(N)c(F)cc3F)c12 [WQ-3810]
IC50 [1]: 71.5 nM
IC50 [3]: 2510 nM
IC50 [4]: 113 nM
IC50 against double-mutant DNA gyrase relative to WT [5]: 110 fold
IC50 [5]: 7.91 µM
IC50 [6]: 1290 nM
MIC [7]: 0.04 µg/mL (≈ 0.0867 µM)
MIC ± SD, S. Typhimurium [7]: 0.04 µg/mL (≈ 0.0867 µM)
MIC (S. Enteritidis NBRC 3313): 0.04 µg/mL (≈ 0.0867 µM)
MIC ± SD, S. Enteritidis (S. Enteritidis NBRC 3313): 0.04 µg/mL (≈ 0.0867 µM)
IC50 [8]: 69.3 nM
IC50 [9]: 71.5 nM
IC50 [11]: 897 nM
